The record followed here is the supplement of paper PMC10307832.

Compound in assay [1]: CO[C@@H]1[C@H](N(C)C(=O)c2ccccc2)C[C@H]2O[C@]1(C)n1c3ccccc3c3c4c(c5c6ccccc6n2c5c31)C(=O)NC4 [Midostaurin] + O=C(CCCCCCC(=O)Nc1ccccc1)NO [Vorinostat] (partner 1 µM)
Nature of the assay: relative viability (nuclei count vs DMSO), 5 days (fraction); higher = more cells survive. In short, it runs like this: (§1)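 Nuclei were stained with Hoechst during a one-step fixation (final 0.05% Triton X-100, 1% formaldehyde, 1 ug/ml Hoechst) carried out 5 days after dosing, then counted on 4× images. The cells, lung cancer lines in 1536-well plates, had been dosed by pin tool the day after seeding with one drug alone or a fixed anchor-drug dose plus five library-drug doses (not always all listed) in √10 steps. Relative viability is the nuclei count in treated wells divided by that in vehicle wells, and each value is the median of duplicate plates.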

Compound in assay [2]: CO[C@@H]1[C@H](N(C)C(=O)c2ccccc2)C[C@H]2O[C@]1(C)n1c3ccccc3c3c4c(c5c6ccccc6n2c5c31)C(=O)NC4 [Midostaurin] + NC(=O)Nc1cc(-c2cccc(F)c2)sc1C(=O)N[C@H]1CCCNC1 [AZD7762] (partner 0.2 µM)
The assay is described as above. In short, it runs like this:
as §1

Consider HOP-62, for which the relative viability worked out at 0.545 in assay [1] (first compound 0.01 µM); 0.607 in assay [1] (first compound 0.03162 µM); 0.676 in assay [1] (first compound 0.1 µM); 0.5 in assay [1] (first compound 0.3162 µM); 0.527 in assay [2] (first compound 0.01 µM); 0.568 in assay [2] (first compound 0.03162 µM). For the same cell line, the figures for the relative viability in assay [2] (first compound 0.1 µM) and in assay [2] (first compound 0.3162 µM) were 0.727 and 0.553, respectively.

In the case of IA-LM, the relative viability in assay [1] (first compound 0.01 µM) is 0.822; in assay [1] (first compound 0.03162 µM), 0.889; in assay [1] (first compound 0.1 µM), 0.943; in assay [1] (first compound 0.3162 µM), 0.907.

On to LC-2-ad, for which the relative viability in assay [1] (first compound 0.01 µM) came to 0.692; in assay [1] (first compound 0.03162 µM), 0.644; in assay [1] (first compound 0.1 µM), 0.775; in assay [1] (first compound 0.3162 µM), 0.459; in assay [2] (first compound 0.01 µM), 0.873; in assay [2] (first compound 0.03162 µM) it was 0.878. The relative viability worked out at 0.843 in assay [2] (first compound 0.1 µM) and 0.724 in assay [2] (first compound 0.3162 µM).

For the cell line LCLC-97TM1, the relative viability in assay [1] (first compound 0.01 µM) turned out to be 0.668; in assay [1] (first compound 0.03162 µM) it was 0.534; in assay [1] (first compound 0.1 µM), 0.635; in assay [1] (first compound 0.3162 µM) it was 0.756; in assay [2] (first compound 0.01 µM) it was 0.169; in assay [2] (first compound 0.03162 µM), 0.287. In addition, the values for the relative viability in assay [2] (first compound 0.1 µM) and in assay [2] (first compound 0.3162 µM) were 0.223 and 0.275, respectively.

As for LCLC-103H, the relative viability in assay [1] (first compound 0.01 µM) was determined as 0.824; in assay [1] (first compound 0.03162 µM) it was 0.717; in assay [1] (first compound 0.1 µM) it was 0.806; in assay [1] (first compound 0.3162 µM), 0.792; in assay [2] (first compound 0.01 µM), 0.789; in assay [2] (first compound 0.03162 µM), 0.782. The figures for the relative viability in assay [2] (first compound 0.1 µM) and in assay [2] (first compound 0.3162 µM) were 0.682 and 0.787, respectively.

In the case of LK-2, the relative viability in assay [1] (first compound 0.01 µM) is 0.252; in assay [1] (first compound 0.03162 µM), 0.258; in assay [1] (first compound 0.1 µM), 0.328; in assay [1] (first compound 0.3162 µM), 0.277; in assay [2] (first compound 0.01 µM) it was 0.494; in assay [2] (first compound 0.03162 µM), 0.408. Moreover, the relative viability in assay [2] (first compound 0.1 µM) came to 0.346; in assay [2] (first compound 0.3162 µM) it was 0.679.

LOU-NH91: the relative viability is 0.933 in assay [1] (first compound 0.01 µM); 0.882 in assay [1] (first compound 0.03162 µM); 0.947 in assay [1] (first compound 0.1 µM); 0.983 in assay [1] (first compound 0.3162 µM); 0.791 in assay [2] (first compound 0.01 µM); 0.724 in assay [2] (first compound 0.03162 µM). For the same cell line, the relative viability in assay [2] (first compound 0.1 µM) came out at 0.778; in assay [2] (first compound 0.3162 µM) it was 0.809.

With LU99A, the relative viability was 0.672 in assay [1] (first compound 0.01 µM); 0.433 in assay [1] (first compound 0.03162 µM); 0.454 in assay [1] (first compound 0.1 µM); 0.479 in assay [1] (first compound 0.3162 µM); 0.29 in assay [2] (first compound 0.01 µM); 0.441 in assay [2] (first compound 0.03162 µM). Besides, the relative viability in assay [2] (first compound 0.1 µM) came out at 0.303; in assay [2] (first compound 0.3162 µM), 0.255.

Consider LXF-289, for which the relative viability in assay [1] (first compound 0.01 µM) was 0.772; in assay [1] (first compound 0.03162 µM), 0.734; in assay [1] (first compound 0.1 µM) it was 0.756; in assay [1] (first compound 0.3162 µM), 0.689; in assay [2] (first compound 0.01 µM), 1.14; in assay [2] (first compound 0.03162 µM), 1.13. Besides, the relative viability was determined as 1.07 in assay [2] (first compound 0.1 µM) and 1.09 in assay [2] (first compound 0.3162 µM).

On to NCI-H23, for which the relative viability came out at 0.514 in assay [1] (first compound 0.01 µM); 0.68 in assay [1] (first compound 0.03162 µM); 0.54 in assay [1] (first compound 0.1 µM); 0.243 in assay [1] (first compound 0.3162 µM); 0.215 in assay [2] (first compound 0.01 µM); 0.265 in assay [2] (first compound 0.03162 µM). In addition, the relative viability came to 0.281 in assay [2] (first compound 0.1 µM) and 0.14 in assay [2] (first compound 0.3162 µM).

Turning to NCI-H322M, the relative viability in assay [1] (first compound 0.01 µM) was found to be 0.877; in assay [1] (first compound 0.03162 µM), 0.849; in assay [1] (first compound 0.1 µM), 0.994; in assay [1] (first compound 0.3162 µM) it was 1.28; in assay [2] (first compound 0.01 µM), 0.504; in assay [2] (first compound 0.03162 µM), 0.703. The relative viability in assay [2] (first compound 0.1 µM) worked out at 0.533; in assay [2] (first compound 0.3162 µM), 0.582.

NCI-H358: the relative viability in assay [1] (first compound 0.01 µM) is 0.625; in assay [1] (first compound 0.03162 µM), 0.536; in assay [1] (first compound 0.1 µM), 0.391; in assay [1] (first compound 0.3162 µM), 0.197; in assay [2] (first compound 0.01 µM), 0.475; in assay [2] (first compound 0.03162 µM), 0.513. In addition, the relative viability in assay [2] (first compound 0.1 µM) was found to be 0.571; in assay [2] (first compound 0.3162 µM), 0.391.

As for NCI-H441, the relative viability amounted to 0.846 in assay [1] (first compound 0.01 µM); 0.801 in assay [1] (first compound 0.03162 µM); 0.801 in assay [1] (first compound 0.1 µM); 0.585 in assay [1] (first compound 0.3162 µM); 1.15 in assay [2] (first compound 0.01 µM); 0.888 in assay [2] (first compound 0.03162 µM). For the same cell line, the relative viability amounted to 0.984 in assay [2] (first compound 0.1 µM) and 1.1 in assay [2] (first compound 0.3162 µM).

Take NCI-H460: the relative viability in assay [1] (first compound 0.01 µM) turned out to be 0.697; in assay [1] (first compound 0.03162 µM), 0.578; in assay [1] (first compound 0.1 µM) it was 0.65; in assay [1] (first compound 0.3162 µM), 0.115; in assay [2] (first compound 0.01 µM) it was 0.678; in assay [2] (first compound 0.03162 µM) it was 0.626. Moreover, the relative viability worked out at 0.635 in assay [2] (first compound 0.1 µM) and 0.704 in assay [2] (first compound 0.3162 µM).

As for NCI-H520, the relative viability in assay [1] (first compound 0.01 µM) amounted to 0.684; in assay [1] (first compound 0.03162 µM), 0.702; in assay [1] (first compound 0.1 µM), 0.694; in assay [1] (first compound 0.3162 µM), 0.412.

Turning to NCI-H522, the relative viability in assay [1] (first compound 0.01 µM) was 0.862; in assay [1] (first compound 0.03162 µM), 1.18; in assay [1] (first compound 0.1 µM), 0.827; in assay [1] (first compound 0.3162 µM), 1.03; in assay [2] (first compound 0.01 µM), 0.86; in assay [2] (first compound 0.03162 µM), 0.833. The values for the relative viability in assay [2] (first compound 0.1 µM) and in assay [2] (first compound 0.3162 µM) were 0.864 and 0.91, respectively.

Take NCI-H596: the relative viability in assay [1] (first compound 0.01 µM) worked out at 0.554; in assay [1] (first compound 0.03162 µM) it was 0.645; in assay [1] (first compound 0.1 µM), 0.625; in assay [1] (first compound 0.3162 µM) it was 0.877; in assay [2] (first compound 0.01 µM) it was 1.25; in assay [2] (first compound 0.03162 µM) it was 1.13. Moreover, the relative viability stood at 1.1 in assay [2] (first compound 0.1 µM) and 1.05 in assay [2] (first compound 0.3162 µM).

In the case of NCI-H647, the relative viability worked out at 0.591 in assay [1] (first compound 0.01 µM); 0.988 in assay [1] (first compound 0.03162 µM); 0.536 in assay [1] (first compound 0.1 µM); 0.275 in assay [1] (first compound 0.3162 µM); 0.576 in assay [2] (first compound 0.01 µM); 0.392 in assay [2] (first compound 0.03162 µM). Moreover, the results for the relative viability in assay [2] (first compound 0.1 µM) and in assay [2] (first compound 0.3162 µM) were 0.41 and 0.324, respectively.
